Several values for one entry are separate records, joined by “and”; a condition that tells them apart may be missing. Identical values can stand only once. Inconclusive results and toxic doses are left out. Rule as the data show it: active = T/C of 150% or more; inactive = T/C below 125%.
Test system: L1210 leukemia ip in BDF1 mice, survival T/C
Assay: NCI In Vivo Anticancer Drug Screen. Data for tumor model L1210 Leukemia (intraperitoneal) in B6D2F1 (BDF1) mice
Conditions: endpoint: mean survival time, higher = longer survival
In short: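 Tumor was transplanted into mice, which were then dosed with test compound or vehicle alone. Survival was recorded for each group, and the treated figure was expressed relative to the control figure.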

[1] = dose: 100.0 mg/kg/injection, schedule: Q01DX001 (ip), vehicle: saline with Tween-80
[2] = dose: 200.0 mg/kg/injection, schedule: Q01DX001 (ip), vehicle: saline with Tween-80
[3] = dose: 400.0 mg/kg/injection, schedule: Q01DX001 (ip), vehicle: saline with Tween-80
[4] = dose: 100.0 mg/kg/injection, schedule: Q01DX009 (ip), vehicle: Klucel (hydroxypropylcellulose) (HPC)
[5] = dose: 200.0 mg/kg/injection, schedule: Q01DX009 (ip), vehicle: Klucel (hydroxypropylcellulose) (HPC)
[6] = dose: 400.0 mg/kg/injection, schedule: Q01DX009 (ip), vehicle: Klucel (hydroxypropylcellulose) (HPC)
[7] = dose: 100.0 mg/kg/injection, schedule: Q01DX009 (ip), vehicle: saline with Tween-80
[8] = dose: 100.0 mg/kg/injection, schedule: Q04DX003 (ip), vehicle: saline with Tween-80
[9] = dose: 200.0 mg/kg/injection, schedule: Q01DX009 (ip), vehicle: saline with Tween-80
[10] = dose: 200.0 mg/kg/injection, schedule: Q04DX003 (ip), vehicle: saline with Tween-80
[11] = dose: 400.0 mg/kg/injection, schedule: Q01DX009 (ip), vehicle: saline with Tween-80
[12] = dose: 400.0 mg/kg/injection, schedule: Q04DX003 (ip), vehicle: saline with Tween-80
[13] = dose: 100.0 mg/kg/injection, schedule: Q01DX001 (ip), vehicle: saline
[14] = dose: 200.0 mg/kg/injection, schedule: Q01DX001 (ip), vehicle: saline
[15] = dose: 400.0 mg/kg/injection, schedule: Q01DX001 (ip), vehicle: saline

Measured: T/C

Cc1c2ccc3ccccc3c2c[n+]2ccccc12
inactive: dose: 5.0 mg/kg/injection, schedule: Q01DX009 (ip), vehicle: saline sonified 102 % of control | dose: 7.0 mg/kg/injection, schedule: Q01DX009 (ip), vehicle: saline sonified 116 % of control and 120 % of control | dose: 10.7 mg/kg/injection, schedule: Q01DX009 (ip), vehicle: saline sonified 117 % of control | dose: 11.0 mg/kg/injection, schedule: Q01DX009 (ip), vehicle: saline sonified 120 % of control | dose: 15.0 mg/kg/injection, schedule: Q04DX003 (ip), vehicle: Klucel (hydroxypropylcellulose) (HPC) 108 % of control | dose: 21.0 mg/kg/injection, schedule: Q04DX003 (ip), vehicle: Klucel (hydroxypropylcellulose) (HPC) 107 % of control | dose: 24.0 mg/kg/injection, schedule: Q01DX009 (ip), vehicle: saline sonified 114 % of control | dose: 33.0 mg/kg/injection, schedule: Q04DX003 (ip), vehicle: Klucel (hydroxypropylcellulose) (HPC) 105 % of control | dose: 48.0 mg/kg/injection, schedule: Q04DX003 (ip), vehicle: Klucel (hydroxypropylcellulose) (HPC) 111 % of control

NC(=S)c1c(N)n(C2OC(CO)C(O)C2O)c2ncnc(N)c12 (stereo not given)
inactive: dose: 3.12 mg/kg/injection, schedule: Q01DX005 (ip), vehicle: saline 116 % of control | dose: 6.25 mg/kg/injection, schedule: Q01DX005 (ip), vehicle: saline 119 % of control and 124 % of control | dose: 12.5 mg/kg/injection, schedule: Q01DX005 (ip), vehicle: saline 112 % of control and 119 % of control | dose: 25.0 mg/kg/injection, schedule: Q01DX005 (ip), vehicle: saline 105 % of control | dose: 50.0 mg/kg/injection, schedule: Q01DX005 (ip), vehicle: saline 120 % of control

CCCCC(C)(O)c1cc(OC)cc(OC)c1 (stereo not given)
inactive: [1] 104 % of control | [2] 97 % of control | [3] 87 % of control

CCOc1ccccc1NC(=O)Oc1cc(C)c(Cl)c(C)c1
inactive: [4] 104 % of control | [5] 98 % of control | [6] 100 % of control

N#CC(C#N)=Cc1ccco1
inactive: dose: 5.0 mg/kg/injection, schedule: Q01DX001 (ip), vehicle: saline 91 % of control | dose: 10.0 mg/kg/injection, schedule: Q01DX001 (ip), vehicle: saline 102 % of control | dose: 20.0 mg/kg/injection, schedule: Q01DX001 (ip), vehicle: saline 100 % of control | dose: 40.0 mg/kg/injection, schedule: Q01DX001 (ip), vehicle: saline 94 % of control

CC[N+](CC)(CC)CCC[n+]1ccc(/C=N\O)cc1
inactive: dose: 25.0 mg/kg/injection, schedule: Q04DX003 (ip), vehicle: saline 100 % of control | dose: 50.0 mg/kg/injection, schedule: Q01DX009 (ip), vehicle: saline 112 % of control | dose: 50.0 mg/kg/injection, schedule: Q04DX003 (ip), vehicle: saline 100 % of control | dose: 100.0 mg/kg/injection, schedule: Q01DX009 (ip), vehicle: saline 102 % of control | dose: 100.0 mg/kg/injection, schedule: Q04DX003 (ip), vehicle: saline 100 % of control and 92 % of control

COc1ccc(OC)c(NC(=S)NC(=O)c2ccc(Cl)cc2Cl)c1
inactive: [1] 89 % of control | [7] 100 % of control and 102 % of control | dose: 100.0 mg/kg/injection, schedule: Q04DX002 (ip), vehicle: saline with Tween-80 93 % of control and 100 % of control | [8] 105 % of control | [2] 86 % of control | [9] 96 % of control and 99 % of control | dose: 200.0 mg/kg/injection, schedule: Q04DX002 (ip), vehicle: saline with Tween-80 106 % of control and 107 % of control | [10] 92 % of control | [3] 96 % of control | [11] 89 % of control | dose: 400.0 mg/kg/injection, schedule: Q04DX002 (ip), vehicle: saline with Tween-80 93 % of control | [12] 95 % of control

O=C1CCC(OC(=O)c2ccccc2)CCN1 (stereo not given)
inactive: dose: 100.0 mg/kg/injection, schedule: Q01DX001 (ip), vehicle: acetone 102 % of control | dose: 200.0 mg/kg/injection, schedule: Q01DX001 (ip), vehicle: acetone 96 % of control | dose: 400.0 mg/kg/injection, schedule: Q01DX001 (ip), vehicle: acetone 94 % of control

COc1ccc(C(O)(CNCc2ccccc2)c2ccccc2)cc1 (stereo not given)
inactive: [1] 97 % of control

CC(CCl)OC(=O)CCO (stereo not given)
inactive: dose: 55.0 mg/kg/injection, schedule: Q01DX Z (ip), vehicle: methylcellulose (MC) 104 % of control | dose: 83.0 mg/kg/injection, schedule: Q01DX Z (ip), vehicle: methylcellulose (MC) 100 % of control | dose: 125.0 mg/kg/injection, schedule: Q01DX Z (ip), vehicle: methylcellulose (MC) 89 % of control

CSc1ccc(NS(=O)(=O)CCNC(=O)C(O)C(C)(C)CO)cc1 (stereo not given)
inactive: [7] 100 % of control | [8] 104 % of control | [9] 103 % of control | [10] 96 % of control | [11] 92 % of control | [12] 109 % of control

CCOC(=O)C1CN(C(C)C)C(=O)C1=O (stereo not given)
inactive: dose: 50.0 mg/kg/injection, schedule: Q01DX001 (ip), vehicle: saline 100 % of control | [13] 102 % of control | [14] 96 % of control | [15] 114 % of control

O=C(OCC(O)C1OC(COC(=O)c2ccccc2)C1O)c1ccccc1 (stereo not given)
inactive: [1] 101 % of control | [2] 97 % of control | [3] 97 % of control

CCC(C)c1cccc2c(C(CC)CC)cccc12 (stereo not given)
inactive: [13] 104 % of control | [14] 106 % of control | [15] 112 % of control

Cc1cc(Cl)ccc1NC(=O)c1ccccc1C(=O)O
inactive: [4] 96 % of control | dose: 100.0 mg/kg/injection, schedule: Q04DX003 (ip), vehicle: Klucel (hydroxypropylcellulose) (HPC) 98 % of control | [5] 93 % of control | dose: 200.0 mg/kg/injection, schedule: Q04DX003 (ip), vehicle: Klucel (hydroxypropylcellulose) (HPC) 91 % of control | [6] 102 % of control | dose: 400.0 mg/kg/injection, schedule: Q04DX003 (ip), vehicle: Klucel (hydroxypropylcellulose) (HPC) 93 % of control

CNC(=O)c1cccc2c1-c1ccccc1C2=O
inactive: dose: 100.0 mg/kg/injection, schedule: Q01DX001 (ip), vehicle: other 91 % of control | dose: 200.0 mg/kg/injection, schedule: Q01DX001 (ip), vehicle: other 91 % of control | dose: 400.0 mg/kg/injection, schedule: Q01DX001 (ip), vehicle: other 91 % of control

Cc1cccc(OCC2CO2)c1 (stereo not given)
inactive: dose: 100.0 mg/kg/injection, schedule: Q04DX002 (ip), vehicle: saline 87 % of control | dose: 200.0 mg/kg/injection, schedule: Q04DX002 (ip), vehicle: saline 102 % of control | dose: 400.0 mg/kg/injection, schedule: Q04DX002 (ip), vehicle: saline 105 % of control

Cc1ccc(C(=O)Nc2c(N)ncnc2N)cc1[N+](=O)[O-]
inactive: dose: 75.0 mg/kg/injection, schedule: Q01DX001 (ip), vehicle: saline with Tween-80 101 % of control | dose: 150.0 mg/kg/injection, schedule: Q01DX001 (ip), vehicle: saline with Tween-80 98 % of control | dose: 300.0 mg/kg/injection, schedule: Q01DX001 (ip), vehicle: saline with Tween-80 102 % of control

NC(Cc1cnc(N=Nc2ccc(N=Nc3ncc(CC(N)C(=O)O)[nH]3)cc2)[nH]1)C(=O)O (stereo not given)
inactive: dose: 50.0 mg/kg/injection, schedule: Q01DX009 (ip), vehicle: Klucel (hydroxypropylcellulose) (HPC) 89 % of control | [4] 89 % of control

NC(N)=N/N=C/CO
inactive: dose: 7.5 mg/kg/injection, schedule: Q01DX Z (oral), vehicle: saline 106 % of control | dose: 15.0 mg/kg/injection, schedule: Q01DX Z (oral), vehicle: saline 100 % of control | dose: 30.0 mg/kg/injection, schedule: Q01DX Z (oral), vehicle: saline 107 % of control | dose: 60.0 mg/kg/injection, schedule: Q01DX Z (oral), vehicle: saline 101 % of control | dose: 120.0 mg/kg/injection, schedule: Q01DX Z (oral), vehicle: saline 102 % of control | dose: 240.0 mg/kg/injection, schedule: Q01DX Z (oral), vehicle: saline 110 % of control

COc1cc(C(=O)NN2C(N)=NC(N)=NC2(C)C)cc(OC)c1OC
inactive: dose: 100.0 mg/kg/injection, schedule: Q04DX003 (ip), vehicle: saline sonified 105 % of control | dose: 200.0 mg/kg/injection, schedule: Q04DX003 (ip), vehicle: saline sonified 101 % of control | dose: 400.0 mg/kg/injection, schedule: Q04DX003 (ip), vehicle: saline sonified 106 % of control
